{"source": "paper PMC9133015", "about": "(Nature Communications, 2022)", "assay_in_all_cases": "Kinase inhibitor specificity profiling (Reaction Biology Corporation)", "assay_type_in_all_cases": "biochemical", "set-up_in_all_cases": "% Enzyme Activity (relative to DMSO controls): concentration or dose not given beside the values", "key": {"[1]": {"biological_target": "T1, panel of 370 protein kinases (Homo sapiens, UniProt Q86YV6)", "T1 construct": "purchased Reaction Biology Corporation (assay service)", "conditions": "2 h, kinase MYLK4; read-out: % Enzyme Activity (relative to DMSO controls)"}, "[2]": {"biological_target": "T2, panel of 370 protein kinases (Homo sapiens, UniProt P07947)", "T2 construct": "purchased Reaction Biology Corporation (assay service)", "conditions": "2 h, kinase YES/YES1; read-out: % Enzyme Activity (relative to DMSO controls)"}, "[3]": {"biological_target": "T3, panel of 370 protein kinases (Homo sapiens, UniProt Q13555)", "T3 construct": "purchased Reaction Biology Corporation (assay service)", "conditions": "2 h, kinase CAMK2g; read-out: % Enzyme Activity (relative to DMSO controls)"}, "[4]": {"biological_target": "T4, panel of 370 protein kinases (Homo sapiens, UniProt P22694)", "T4 construct": "purchased Reaction Biology Corporation (assay service)", "conditions": "2 h, kinase PKAcb; read-out: % Enzyme Activity (relative to DMSO controls)"}, "[5]": {"biological_target": "T5, panel of 370 protein kinases (Homo sapiens, UniProt Q07912)", "T5 construct": "purchased Reaction Biology Corporation (assay service)", "conditions": "2 h, kinase ACK1; read-out: % Enzyme Activity (relative to DMSO controls)"}, "[6]": {"biological_target": "T6, panel of 370 protein kinases (Homo sapiens, UniProt Q13554)", "T6 construct": "purchased Reaction Biology Corporation (assay service)", "conditions": "2 h, kinase CAMK2b; read-out: % Enzyme Activity (relative to DMSO controls)"}, "[7]": {"biological_target": "T7, panel of 370 protein kinases (Homo sapiens, UniProt O75716)", "T7 construct": "purchased Reaction Biology Corporation (assay service)", "T7 sequence (O75716 whole entry)": "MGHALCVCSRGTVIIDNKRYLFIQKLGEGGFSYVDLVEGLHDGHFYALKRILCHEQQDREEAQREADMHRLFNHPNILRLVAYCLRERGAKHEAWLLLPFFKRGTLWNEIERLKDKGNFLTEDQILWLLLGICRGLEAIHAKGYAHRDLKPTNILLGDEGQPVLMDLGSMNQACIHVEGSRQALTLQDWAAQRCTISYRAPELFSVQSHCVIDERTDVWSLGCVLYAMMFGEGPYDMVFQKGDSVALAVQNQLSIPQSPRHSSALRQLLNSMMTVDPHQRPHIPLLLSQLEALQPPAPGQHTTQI", "conditions": "2 h, kinase STK16; read-out: % Enzyme Activity (relative to DMSO controls)"}, "[8]": {"biological_target": "T8, panel of 370 protein kinases (Homo sapiens, UniProt P15056)", "T8 construct": "purchased Reaction Biology Corporation (assay service)", "conditions": "2 h, kinase BRAF; read-out: % Enzyme Activity (relative to DMSO controls)"}, "[9]": {"biological_target": "T9, panel of 370 protein kinases (Homo sapiens, UniProt Q9NRM7)", "T9 construct": "purchased Reaction Biology Corporation (assay service)", "T9 sequence (Q9NRM7 whole entry)": "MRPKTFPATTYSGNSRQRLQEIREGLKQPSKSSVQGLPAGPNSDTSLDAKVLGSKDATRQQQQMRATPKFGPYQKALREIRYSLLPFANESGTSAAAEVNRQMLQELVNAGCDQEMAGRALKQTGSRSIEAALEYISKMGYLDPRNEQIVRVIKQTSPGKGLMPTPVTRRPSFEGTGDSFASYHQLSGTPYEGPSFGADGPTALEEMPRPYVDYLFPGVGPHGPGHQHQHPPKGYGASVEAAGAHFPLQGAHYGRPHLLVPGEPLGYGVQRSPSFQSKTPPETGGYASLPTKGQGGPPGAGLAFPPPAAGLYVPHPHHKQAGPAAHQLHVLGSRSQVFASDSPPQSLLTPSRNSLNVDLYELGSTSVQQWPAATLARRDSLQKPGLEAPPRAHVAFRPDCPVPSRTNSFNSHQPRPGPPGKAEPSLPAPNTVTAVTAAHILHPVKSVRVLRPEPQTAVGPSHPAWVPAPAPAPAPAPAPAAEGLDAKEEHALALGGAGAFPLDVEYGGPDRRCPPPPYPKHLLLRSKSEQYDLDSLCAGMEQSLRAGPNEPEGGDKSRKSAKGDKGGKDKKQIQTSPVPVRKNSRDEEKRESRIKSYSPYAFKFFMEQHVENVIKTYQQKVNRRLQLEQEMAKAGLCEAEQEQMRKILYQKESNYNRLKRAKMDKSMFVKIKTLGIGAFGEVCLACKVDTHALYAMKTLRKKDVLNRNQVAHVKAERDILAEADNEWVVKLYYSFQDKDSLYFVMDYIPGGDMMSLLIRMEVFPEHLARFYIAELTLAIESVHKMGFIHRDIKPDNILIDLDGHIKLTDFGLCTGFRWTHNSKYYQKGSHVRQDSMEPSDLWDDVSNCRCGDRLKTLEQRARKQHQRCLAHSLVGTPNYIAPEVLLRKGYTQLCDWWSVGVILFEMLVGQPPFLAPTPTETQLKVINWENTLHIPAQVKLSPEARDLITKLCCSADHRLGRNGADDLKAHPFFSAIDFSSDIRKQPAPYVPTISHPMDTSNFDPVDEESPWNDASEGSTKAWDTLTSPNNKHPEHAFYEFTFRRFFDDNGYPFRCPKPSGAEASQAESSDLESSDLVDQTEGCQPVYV", "conditions": "kinase LATS2"}, "[10]": {"biological_target": "T10, panel of 370 protein kinases (Homo sapiens, UniProt Q16584)", "T10 construct": "purchased Reaction Biology Corporation (assay service)", "T10 sequence (Q16584 whole entry)": "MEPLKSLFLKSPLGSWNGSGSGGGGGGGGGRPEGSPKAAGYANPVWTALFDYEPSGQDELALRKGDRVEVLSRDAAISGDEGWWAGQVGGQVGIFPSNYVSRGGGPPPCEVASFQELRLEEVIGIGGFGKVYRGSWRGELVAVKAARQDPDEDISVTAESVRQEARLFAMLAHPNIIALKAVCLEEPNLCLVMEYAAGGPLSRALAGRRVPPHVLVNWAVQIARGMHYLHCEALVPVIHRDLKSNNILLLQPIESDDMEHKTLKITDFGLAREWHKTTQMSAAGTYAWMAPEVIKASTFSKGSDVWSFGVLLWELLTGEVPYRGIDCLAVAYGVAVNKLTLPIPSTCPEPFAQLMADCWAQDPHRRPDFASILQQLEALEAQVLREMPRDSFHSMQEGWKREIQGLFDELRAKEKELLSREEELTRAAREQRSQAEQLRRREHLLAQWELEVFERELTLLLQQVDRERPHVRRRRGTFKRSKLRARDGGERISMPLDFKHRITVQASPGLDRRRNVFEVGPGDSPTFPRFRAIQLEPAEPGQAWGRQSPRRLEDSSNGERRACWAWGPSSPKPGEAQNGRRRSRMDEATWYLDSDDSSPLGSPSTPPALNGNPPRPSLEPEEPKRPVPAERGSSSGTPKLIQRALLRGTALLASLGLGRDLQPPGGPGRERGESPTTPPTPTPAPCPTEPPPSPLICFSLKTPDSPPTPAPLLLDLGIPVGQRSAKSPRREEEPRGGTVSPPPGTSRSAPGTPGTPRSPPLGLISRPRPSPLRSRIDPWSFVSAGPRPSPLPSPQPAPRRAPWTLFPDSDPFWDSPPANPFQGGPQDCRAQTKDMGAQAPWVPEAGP", "conditions": "kinase MLK3/MAP3K11"}, "[11]": {"biological_target": "T11, panel of 370 protein kinases (Homo sapiens, UniProt P42681)", "T11 construct": "purchased Reaction Biology Corporation (assay service)", "conditions": "2 h, kinase TXK; read-out: % Enzyme Activity (relative to DMSO controls)"}, "[12]": {"biological_target": "T12, panel of 370 protein kinases (Homo sapiens, UniProt Q76MJ5)", "T12 construct": "purchased Reaction Biology Corporation (assay service)", "conditions": "2 h, kinase ERN2/IRE2; read-out: % Enzyme Activity (relative to DMSO controls)"}, "[13]": {"biological_target": "T13, panel of 370 protein kinases (Homo sapiens, UniProt P54762)", "T13 construct": "purchased Reaction Biology Corporation (assay service)", "T13 sequence (P54762 18-984)": "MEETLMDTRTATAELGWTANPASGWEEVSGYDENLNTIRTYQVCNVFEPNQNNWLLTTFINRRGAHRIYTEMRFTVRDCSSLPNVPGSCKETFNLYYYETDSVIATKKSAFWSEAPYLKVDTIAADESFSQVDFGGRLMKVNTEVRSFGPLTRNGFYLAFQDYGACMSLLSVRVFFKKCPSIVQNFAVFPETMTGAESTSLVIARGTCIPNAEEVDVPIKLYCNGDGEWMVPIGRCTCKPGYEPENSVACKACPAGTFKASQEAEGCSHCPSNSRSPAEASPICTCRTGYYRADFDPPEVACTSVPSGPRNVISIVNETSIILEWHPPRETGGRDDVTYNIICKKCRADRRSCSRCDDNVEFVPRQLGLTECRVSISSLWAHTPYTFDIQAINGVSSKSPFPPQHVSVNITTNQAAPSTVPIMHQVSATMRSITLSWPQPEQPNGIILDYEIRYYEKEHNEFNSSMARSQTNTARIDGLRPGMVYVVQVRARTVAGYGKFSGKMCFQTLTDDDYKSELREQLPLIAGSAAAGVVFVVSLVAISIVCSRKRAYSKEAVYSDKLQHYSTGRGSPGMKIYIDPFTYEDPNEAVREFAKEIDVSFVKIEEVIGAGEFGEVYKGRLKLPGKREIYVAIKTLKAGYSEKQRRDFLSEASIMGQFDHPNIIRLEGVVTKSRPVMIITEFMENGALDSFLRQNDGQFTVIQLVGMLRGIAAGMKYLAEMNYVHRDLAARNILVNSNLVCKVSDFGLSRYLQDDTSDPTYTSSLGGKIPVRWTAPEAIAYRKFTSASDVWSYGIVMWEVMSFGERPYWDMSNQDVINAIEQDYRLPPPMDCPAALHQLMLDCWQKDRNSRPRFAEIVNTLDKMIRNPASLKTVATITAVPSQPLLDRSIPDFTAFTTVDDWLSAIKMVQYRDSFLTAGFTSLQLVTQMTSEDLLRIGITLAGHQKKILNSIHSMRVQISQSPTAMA", "conditions": "2 h, kinase EPHB1; read-out: % Enzyme Activity (relative to DMSO controls)"}, "[14]": {"biological_target": "T14, panel of 370 protein kinases (Homo sapiens, UniProt Q5S007)", "T14 construct": "purchased Reaction Biology Corporation (assay service)", "conditions": "2 h, kinase LRRK2; read-out: % Enzyme Activity (relative to DMSO controls)"}, "[15]": {"biological_target": "T15, panel of 370 protein kinases (Homo sapiens, UniProt P08581)", "T15 construct": "purchased Reaction Biology Corporation (assay service)", "T15 sequence (P08581 25-1390)": "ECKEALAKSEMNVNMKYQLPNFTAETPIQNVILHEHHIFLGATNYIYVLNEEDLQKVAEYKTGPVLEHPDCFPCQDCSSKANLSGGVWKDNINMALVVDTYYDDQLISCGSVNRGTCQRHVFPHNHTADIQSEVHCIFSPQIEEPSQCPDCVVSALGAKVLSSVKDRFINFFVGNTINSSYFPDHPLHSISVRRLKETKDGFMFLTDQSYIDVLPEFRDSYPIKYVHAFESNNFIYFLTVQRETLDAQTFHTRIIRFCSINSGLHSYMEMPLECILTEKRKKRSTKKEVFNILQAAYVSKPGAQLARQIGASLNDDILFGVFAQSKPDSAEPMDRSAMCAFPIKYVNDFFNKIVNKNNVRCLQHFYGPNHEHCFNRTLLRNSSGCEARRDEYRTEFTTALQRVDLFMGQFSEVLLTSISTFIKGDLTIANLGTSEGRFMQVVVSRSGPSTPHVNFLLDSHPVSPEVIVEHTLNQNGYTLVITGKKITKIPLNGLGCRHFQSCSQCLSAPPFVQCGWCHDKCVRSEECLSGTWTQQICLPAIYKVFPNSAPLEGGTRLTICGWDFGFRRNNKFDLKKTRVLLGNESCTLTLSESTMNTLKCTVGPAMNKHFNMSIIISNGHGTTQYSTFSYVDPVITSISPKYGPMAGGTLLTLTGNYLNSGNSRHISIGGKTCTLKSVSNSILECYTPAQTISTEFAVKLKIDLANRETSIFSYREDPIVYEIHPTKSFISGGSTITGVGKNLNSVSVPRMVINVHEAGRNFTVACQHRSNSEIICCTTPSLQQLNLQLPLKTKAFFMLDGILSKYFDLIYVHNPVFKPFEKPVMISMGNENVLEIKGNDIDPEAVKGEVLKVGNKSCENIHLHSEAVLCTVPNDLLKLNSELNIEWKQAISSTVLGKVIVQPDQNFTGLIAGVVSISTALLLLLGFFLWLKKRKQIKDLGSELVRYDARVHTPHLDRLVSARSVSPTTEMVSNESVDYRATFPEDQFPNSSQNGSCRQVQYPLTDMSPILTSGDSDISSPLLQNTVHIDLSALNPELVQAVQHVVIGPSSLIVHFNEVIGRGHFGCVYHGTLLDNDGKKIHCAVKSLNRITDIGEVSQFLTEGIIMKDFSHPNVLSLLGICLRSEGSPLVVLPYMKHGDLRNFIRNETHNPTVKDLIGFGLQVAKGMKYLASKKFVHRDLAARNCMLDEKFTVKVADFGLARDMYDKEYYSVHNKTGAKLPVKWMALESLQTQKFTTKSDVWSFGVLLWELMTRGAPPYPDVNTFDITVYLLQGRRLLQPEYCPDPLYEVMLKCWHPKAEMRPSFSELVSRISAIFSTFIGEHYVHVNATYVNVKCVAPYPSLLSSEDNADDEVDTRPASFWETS", "conditions": "kinase c-MET"}, "[16]": {"biological_target": "T16, panel of 370 protein kinases (Homo sapiens, UniProt P42684)", "T16 construct": "purchased Reaction Biology Corporation (assay service)", "conditions": "2 h, kinase ABL2/ARG; read-out: % Enzyme Activity (relative to DMSO controls)"}, "[17]": {"biological_target": "T17, panel of 370 protein kinases (Homo sapiens, UniProt P00519)", "T17 construct": "purchased Reaction Biology Corporation (assay service)", "conditions": "2 h, kinase ABL1; read-out: % Enzyme Activity (relative to DMSO controls)"}, "[18]": {"biological_target": "T18, panel of 370 protein kinases (Homo sapiens, UniProt Q9UPE1)", "T18 construct": "purchased Reaction Biology Corporation (assay service)", "conditions": "2 h, kinase MSSK1/STK23; read-out: % Enzyme Activity (relative to DMSO controls)"}, "[19]": {"biological_target": "T19, panel of 370 protein kinases (Homo sapiens, UniProt Q96NX5)", "T19 construct": "purchased Reaction Biology Corporation (assay service)", "conditions": "2 h, kinase CAMK1g; read-out: % Enzyme Activity (relative to DMSO controls)"}, "[20]": {"biological_target": "T20, panel of 370 protein kinases (Homo sapiens, UniProt Q6DT37)", "T20 construct": "purchased Reaction Biology Corporation (assay service)", "conditions": "2 h, kinase DMPK2; read-out: % Enzyme Activity (relative to DMSO controls)"}, "[21]": {"biological_target": "T21, panel of 370 protein kinases (Homo sapiens, UniProt Q15835)", "T21 construct": "purchased Reaction Biology Corporation (assay service)", "conditions": "2 h, kinase GRK1; read-out: % Enzyme Activity (relative to DMSO controls)"}, "[22]": {"biological_target": "T22, panel of 370 protein kinases (Homo sapiens, UniProt P49336)", "T22 construct": "purchased Reaction Biology Corporation (assay service)", "T22 sequence (P49336 whole entry)": "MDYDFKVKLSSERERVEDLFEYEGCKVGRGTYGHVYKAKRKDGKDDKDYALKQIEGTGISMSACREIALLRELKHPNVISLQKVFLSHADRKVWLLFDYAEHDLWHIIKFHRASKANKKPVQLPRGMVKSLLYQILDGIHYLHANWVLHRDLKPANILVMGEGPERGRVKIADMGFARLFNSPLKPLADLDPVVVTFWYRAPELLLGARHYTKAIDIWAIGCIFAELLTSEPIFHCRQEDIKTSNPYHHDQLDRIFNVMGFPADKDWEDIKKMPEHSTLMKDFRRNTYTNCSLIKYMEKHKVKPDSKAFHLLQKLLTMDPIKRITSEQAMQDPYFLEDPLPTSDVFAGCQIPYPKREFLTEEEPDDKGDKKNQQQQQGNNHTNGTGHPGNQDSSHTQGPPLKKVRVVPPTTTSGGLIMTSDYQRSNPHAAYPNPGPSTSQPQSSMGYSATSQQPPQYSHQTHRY", "conditions": "kinase CDK8/cyclin C"}}, "note": "Values joined by “and” are separate entries in the source; they are usually repeats but may differ in a detail not shown here. Identical values can stand only once."}
{"smiles": "CCN1CCN(C(=O)c2ccc(Nc3ncc(F)c(-c4ccc5nc(N(C)C)sc5c4)n3)nc2)CC1", "note": "[YK-2-69]", "values": [{"measurement": "remaining activity at 1 µM", "setting": "[1]", "result": 44.6, "unit": "%"}, {"measurement": "remaining activity at 1 µM", "setting": "[2]", "result": 108, "unit": "%"}, {"measurement": "remaining activity at 1 µM", "setting": "[3]", "result": 86, "unit": "%"}, {"measurement": "remaining activity at 1 µM", "setting": "[4]", "result": 99.7, "unit": "%"}, {"measurement": "remaining activity at 1 µM", "setting": "[5]", "result": 101, "unit": "%"}, {"measurement": "remaining activity at 1 µM", "setting": "[6]", "result": 78.5, "unit": "%"}, {"measurement": "remaining activity at 1 µM", "setting": "[7]", "result": 57.5, "unit": "%"}, {"measurement": "remaining activity at 1 µM", "setting": "[8]", "result": 95.2, "unit": "%"}, {"measurement": "% Enzyme Activity (relative to DMSO controls)", "setting": "[9]", "result": "96.27% and 92.88%"}, {"measurement": "% Enzyme Activity (relative to DMSO controls)", "setting": "[10]", "result": "97.08% and 87.23%"}, {"measurement": "remaining activity at 1 µM", "setting": "[11]", "result": 95.6, "unit": "%"}, {"measurement": "remaining activity at 1 µM", "setting": "[12]", "result": 88.5, "unit": "%"}, {"measurement": "remaining activity at 1 µM", "setting": "[13]", "result": 94, "unit": "%"}, {"measurement": "remaining activity at 1 µM", "setting": "[14]", "result": 72, "unit": "%"}, {"measurement": "% Enzyme Activity (relative to DMSO controls)", "setting": "[15]", "result": "79.77% and 77.94%"}, {"measurement": "remaining activity at 1 µM", "setting": "[16]", "result": 91.2, "unit": "%"}, {"measurement": "remaining activity at 1 µM", "setting": "[17]", "result": 85, "unit": "%"}, {"measurement": "remaining activity at 1 µM", "setting": "[18]", "result": 96.3, "unit": "%"}, {"measurement": "remaining activity at 1 µM", "setting": "[19]", "result": 56.8, "unit": "%"}, {"measurement": "remaining activity at 1 µM", "setting": "[20]", "result": 97.7, "unit": "%"}, {"measurement": "remaining activity at 1 µM", "setting": "[21]", "result": 97.2, "unit": "%"}, {"measurement": "% Enzyme Activity (relative to DMSO controls)", "setting": "[22]", "result": "57.28% and 56.07%"}]}
